How the values were obtained:
[1] = system: human visceral preadipocytes; assay: in vitro; conditions: for Average RZL-012 and collagenase induced cell death (% vs untreated cells): RZL12 0 μM, 24 h of incubation
Protocol: Human visceral preadipocytes were seeded in 96-well white clear bottom plates at 10,000 cells per well in 100 μl pre-adipocyte medium and incubated overnight at 37° C. 5% CO2. On the following day, adipogenic differentiation was induced by addition of 100 μl/well differentiation medium and incubation continued for 5 days. Adipogenic differentiation was verified by microscopic evaluation, addition of adipored reagents and fluorescent measurement at Ex485 nm/Em572 nm. […] Staurosporine (1 μM) and 0.2% DMSO were used as controls. Plates were incubated at 37° C. 5% CO2 for 2, 6 and 24 hours. Following incubation, cytotoxicity was measured using Cell Titer Glo 2.0 (Promega).
Test Item RZL-12 (1-300 μM) was prepared on the day of the testing as 150 mM stock solutions in DMSO. The 150 mM represents a 500×stock of the highest desired tested concentration. The 150 mM stock solution was first serially diluted in DMSO to acquire 500×stock solutions for each of the RZL-012 concentrations. The 500×stock solutions were then diluted 1:25 in medium to acquire 20×intermediate stock solutions. Finally, the 20×intermediate stock solutions were further diluted 1:20 in the assay (on the plate) that included seeded cells.
The 600 μM represents a 20× stock of the highest desired tested concentration. […] Finally, the 20×intermediate stock solutions were further diluted 1:20 in the assay plate that included seeded cells.
Human visceral pre-adipocytes (HPrAD-vis): HPrAD-vis cells (Lonza cat #PT-5005) were thawed at 37° C. and transferred into 50 ml tubes containing pre-adipocytes PGM-2 growth medium (PBM-2, 10% FBS, 1-glutamine, GA-1000). Cells were centrifuged at 300 g for 10 minutes, the supernatant was removed (Leaving about 1 ml of wash medium for not disrupting the cells) and 2 ml fresh PGM-2 medium was added. After resuspension, cells were counted and seeded in T-75 and T25 flasks at a density of 9,000 cells/cm^2 ([…], 225,000 cells/T25 flask). Medium was changed every 2-3 days until reached confluence of 70%.
Cells were sub-cultured only once, as soon as they reached 70% confluence. For this purpose, the culture medium of each flask was removed and cells were washed once with 5 ml PBS. The flask was shaken to ensure that the entire surface was covered and the PBS was removed. Then, 3 ml/T75 flask or 1 ml/T25 flask of fresh dedicated Trypsin/EDTA solution (from Lonza) was added and the flasks were incubated for 3-4 minutes at RT until ˜90% cells were detached. The Trypsin/EDTA solution was then neutralized by addition of 6 ml/T75 flask or 3 ml/T25 flask of full PGM-2 growth medium. Cells were collected in 50 ml tubes and centrifuged 10 minutes at 300 g. The supernatant was removed and the cells were resuspended in 3 ml fresh medium. Cells were then counted using a haemacytometer slide after being diluted 1:2 in trypan blue (SIGMA). For sub-culturing, cells were seeded in new T75 flasks at a density of 9,000 cells/cm^2 containing 15 ml fresh growth medium. Alternatively, the cells were seeded in 96-well culture plates at a density of 10,000 cells/well for the cell treatments.
HPrAD-vis cells: HPrAD-vis passaged once were seeded in 96-well plates as described above (10000cells/well in 100 μl medium) and allowed to settle overnight at 37° C., 5% CO2. Following day, adipogenic differentiation was induced by addition of 100 μl/well differentiation medium and incubated for 5 days. Adipogenic differentiation was verified by microscopic evaluation, addition of adipored reagents and fluorescent measurement at Ex485 nm/Em572 nm. In the morning of day 6, test and reference items were prepared as described above. Cells' medium was replaced with 90 μl fresh differentiation medium. […] Staurosporine (1 μM) and 0.2% DMSO were used as controls. Plates were incubated at 37° C. 5% CO2 for 2, 6 and 24 hours. Following incubation, cell viability was determined using the CellTiter-Gg® viability reagent (Promega) with reading of plates for luminescence. […]

Wi-38 fibroblasts = assay: Cell Titer Glo 2.0 cytotoxicity assay on Wi-38 fibroblasts; type: cell-based; conditions: cytotoxic reference control; after 24 hours of incubation

Molecule | maximal cell death ([1]; 24 h, 1 µM) [%] | maximal cell death (Wi-38 fibroblasts) [%] | Average RZL-012 and collagenase induced cell death (% vs untreated cells) ([1]; Collagenase 0.1 μM) [%] | Average RZL-012 and collagenase induced cell death (% vs untreated cells) ([1]; Collagenase 0.3 μM) [%] | Average RZL-012 and collagenase induced cell death (% vs untreated cells) ([1]; Collagenase 1 μM) [%] | Average RZL-012 and collagenase induced cell death (% vs untreated cells) ([1]; Collagenase 3 μM) [%] | Average RZL-012 and collagenase induced cell death (% vs untreated cells) ([1]; Collagenase 10 μM) [%] | Average RZL-012 and collagenase induced cell death (% vs untreated cells) ([1]; Collagenase 30 μM) [%] | concentrations at which the cytotoxic effect was observed ([1]; at all time points (2, 6, 24 h)) [nM] | effect of collagenase on RZL-012 cytotoxicity ([1]; collagenase 10 μM and 30 μM, 2 h time point) | effect of collagenase added together with RZL-012 on cell cytotoxicity ([1]; collagenase 0.1-1 μM, adipocytes, 6 h and 24 h time points, vs each compound alone)
CN[C@@H]1C[C@H]2O[C@@](C)([C@@H]1OC)n1c3ccccc3c3c4c(c5c6ccccc6n2c5c31)C(=O)NC4 [staurosporine, reference compound] | 89 | 89 | – | – | – | – | – | – | – | – | –
Collagenase | – | – | 7.28 | 6.53 | 25.57 | 33.27 | 65.68 | 79.93 | > 3000 | attenuated RZL-012 cytotoxicity | attenuate cell cytotoxicity

Source: patent US20240041827A1, “COMPOSITIONS FOR THE TREATMENT OF FAT RELATED CONDITIONS AND DISORDERS” (priority 2020, published 2024)
